The source of these data is patent US4764602A, “Antibiotics, and their production” (Sumitomo Chemical Company, priority 1986, dated 1988).

One may read the MIC as the least concentration at which growth counts as inhibited.

Data set [1] concerns Klebsiella pneumoniae ATCC 10031. Briefly: MIC by agar dilution method. The class given is cell-based. The note with it: ATCC10031, Modified MullerHinton agar medium. The source says: (§1) The minimum inhibitory concentrations (MIC) of PC-766B against various microorgnisms as measured by the agar dilution method are shown in Table 4.
(§2) Note: *^1 1: Modified MullerHinton agar medium; 2: Sabouraud's agar
A general note: Agar dilution tests growth on a series of plates holding different concentrations.

The test system of data set [2] is Staphylococcus epidermidis IAM 1296. The data set can be described thus: MIC by agar dilution method. The class given is cell-based. The conditions noted are these: IAM1296, Modified MullerHinton agar medium.
Source text: as §1, §2

The test system of data set [3] is Micrococcus luteus ATCC 9341. The data set can be described thus: MIC by agar dilution method. The class given is cell-based. The conditions noted are these: ATCC9341, Modified MullerHinton agar medium.
Source text: as §1, §2

In another data set the test system is Bacillus cereus IAM 1029. The data set can be described thus: MIC by agar dilution method. The class given is cell-based. The note with it: IAM1029, Modified MullerHinton agar medium.
Source text: as §1, §2

Data set [4] has as its system Aspergillus fumigatus MTU 16001. Briefly: MIC by agar dilution method. The class given is cell-based. The note with it: MTU16001, Sabouraud's agar medium.
Source text: as §1, §2

A further data set deals with Serratia marcescens ×100. The data set can be described thus: MIC by agar dilution method. The class given is cell-based. The conditions noted are these: Modified MullerHinton agar medium.
Source text: as §1, §2

Data set [5] concerns Cryptococcus neoformans MTU 13001. The data set can be described thus: MIC by agar dilution method. The class given is cell-based. The conditions noted are these: MTU13001, Sabouraud's agar medium.
Source text: as §1, §2

The subject of data set [6] is Bacillus subtilis ATCC 6633. The data set can be described thus: MIC by agar dilution method. The class given is cell-based. The note with it: ATCC6633, Modified MullerHinton agar medium.
Source text: as §1, §2

The test system of data set [7] is Proteus mirabilis GN 2425. Briefly: MIC by agar dilution method. The class given is cell-based. The conditions noted are these: GN2425, Modified MullerHinton agar medium.
Source text: as §1, §2

Data set [8] concerns Streptococcus pyogenes Cook. The data set can be described thus: MIC by agar dilution method. The class given is cell-based. The conditions noted are these: Modified MullerHinton agar medium.
Source text: as §1, §2

For data set [9], the system named is Trichophyton mentagrophytes MTU 19001. The data set can be described thus: MIC by agar dilution method. The class given is cell-based. The note with it: MTU19001, Sabouraud's agar medium.
Source text: as §1, §2

The test system of data set [10] is Staphylococcus aureus 209P. The data set can be described thus: MIC by agar dilution method. The class given is cell-based. The conditions noted are these: Modified MullerHinton agar medium.
Source text: as §1, §2

Data set [11] relates to Escherichia coli NIJH JC-2. The data set can be described thus: MIC by agar dilution method. The class given is cell-based. The note with it: NIJHJC2, Modified MullerHinton agar medium.
Source text: as §1, §2

In data set [12] the test system is Candida albicans MTU 12001. The data set can be described thus: MIC by agar dilution method. The class given is cell-based. The conditions noted are these: MTU12001, Sabouraud's agar medium.
Source text: as §1, §2

A further data set has as its system Pseudomonas aeruginosa T. The data set can be described thus: MIC by agar dilution method. The conditions noted are these: Modified MullerHinton agar medium. The class given is cell-based.
Source text: as §1, §2

The nature of another data set: Solubility. The class given is physicochemical.

≈ marks a conversion by molar mass, not a printed value.

Consider `CC=CC=CC1OC(O)(C(C)C(O)C(C)C2OC(=O)C(OC)=CC(C)=CC(C)C(O)C(C)CC(C)=CC=CC2OC)CC(OC2CC(O)C(O)C(C)O2)C1C` (centres unmarked) [PC-766B], for which the MIC in [1] was over 200 µg/mL; in [2], 6.25 µg/mL (≈ 8.04 µM); in [3], 1.56 µg/mL (≈ 2.01 µM); against Bacillus cereus IAM 1029 it was 3.13 µg/mL (≈ 4.03 µM); in data set [4], over 100 µg/mL; against Serratia marcescens ×100, over 200 µg/mL. Further, the MIC in [5] is 12.5 µg/mL (≈ 16.1 µM); in data set [6] it was 6.25 µg/mL (≈ 8.04 µM); in data set [7], over 200 µg/mL; in data set [8], 3.13 µg/mL (≈ 4.03 µM); in data set [9], over 100 µg/mL; in data set [10], 12.5 µg/mL (≈ 16.1 µM). Also, the MIC is over 200 µg/mL in data set [11], over 100 µg/mL in data set [12] and over 200 µg/mL against Pseudomonas aeruginosa T. Moreover, the Solubility entry in the data set “Solubility” (methanol, chloroform and ethyl acetate) is “soluble in methanol, chloroform and ethyl acetate”; in the data set “Solubility” (n-hexane and water), “insoluble in n-hexane and water”.
